According to a melting point compilation (Tetko et al.; mined from patent text by program, amines drawn as free bases though some values may be those of a salt):

melting point [°C]	Structure (SMILES)
137 to 138	Cc1nnc(-c2ccnc(NCc3ccccn3)c2)o1
114 to 116	CC(c1ccncn1)C(O)(Cn1cncn1)c1ccc(F)cc1F (configuration not stated)
47 to 51	O=C(c1ccc(OC2CCCCC2N2CCCC2)c(F)c1)c1c(-c2ccc(OCCN3CCCC3)cc2)sc2cc(OCc3ccccc3)ccc12 (configuration not stated)
174 to 175	Cc1cc(=O)n(-c2c(Cl)cc(C(F)(F)F)cc2Cl)[nH]1
165 to 172	COc1cc2ncc(C#N)c(C)c2cc1OCc1ccccc1
133 to 136	CCOC(=O)c1csc(Nc2ccc(F)cc2)n1
288 to 289	c1cnc2[nH]c(-c3ccc(C4OCCCO4)cc3)cc2n1
77 to 79.5	CCOC(=O)C(C)NC(=O)N(C)N (configuration not stated)
101 to 102	O=C(OCc1ccc(OCc2ccc(Cl)cc2)cc1)c1cccnc1
124 to 127	CCOc1cc(C2=NN(C3CCCC3)C(=O)[C@H]3CC=CC[C@@H]23)ccc1OC (relative stereo)
266 to 267	O=S1(=O)CCN2C=CC=C(c3ccc(Oc4ccc(F)cc4)cc3)C2=N1
139	CCn1nc(-c2ccccc2)c(C(C)=O)c(Nc2ccc(CN)cc2)c1=O
168 to 170	COC(=O)C1=Cc2cc(-c3ccc(Cl)cc3)ccc2S(=O)(=O)CC1
312	Cc1cc(-c2ccc(Cl)cc2)nc(-n2cnc(-c3ccc(S(N)(=O)=O)cc3)c2)n1
95 to 96.5	CC12CC3C(=O)OC(C1O)C3(C)O2 (configuration not stated)
113 to 114	COc1cc2cc(C)sc2c(Cl)c1Cl
210 to 211	CNC(=O)c1c(NC(=O)c2cc(C(F)(F)F)nn2-c2ncccc2Cl)ccc2ncccc12
270 to 272	C[C@H](Cn1cnc2c(=O)[nH]c(N)nc21)OCP(=O)(O)O
146	CCN1CCc2ccc(Nc3ncc(Cl)c(NCCNS(C)(=O)=O)n3)cc2CC1
50 to 51	CCC(O)(c1ccc(OCc2ccccc2)cc1)c1cccc(C(F)(F)F)c1 (configuration not stated)
167 to 169	COc1ccccc1N1CCN(CCCCN(C(N)=O)C(C)(C)C)CC1
231 to 232	COCc1c(C(=O)O)ncc2c1c1c(Oc3ccc([N+](=O)[O-])cc3)cccc1n2CC(=O)N(C)CCc1ccccc1
117 to 121	Cc1c[nH]c(=O)n(CCCCl)c1=O
183 to 187	OCc1cn(-c2ccc3ncccc3c2)cn1
145 to 147	Cc1ccc(C(=O)NC(=S)NCc2ccccc2C(N)=O)cc1

melting point [°C]	Structure (SMILES)
194 to 195	CS(=O)c1ccc(-n2cnc3ccc(-c4nnc(CCc5cccc(C#N)c5)o4)cc32)cc1 (configuration not stated)
170	CN1CCN(C(=O)OC2C3=C(SCCS3)C(=O)N2c2ccc(Cl)cn2)CC1 (configuration not stated)
179 to 181	C=CCNC(=O)c1ccccc1C(c1ccc(O)cc1)c1ccc(O)cc1
120 to 121	N[C@@H](Cc1ccccc1)C(=O)N1CCC[C@H]1C(=O)OCc1ccccc1
56 to 67	CCCn1cnc2c1c(=O)n(CCCCCCOc1ccc(OC)cc1)c(=O)n2C
236	CC(C)c1cc(C(C)C)c(-c2csc(Br)n2)c(C(C)C)c1
176 to 179	COc1ccc2nc(COc3cccc(OCc4cccc(C)c4C(=O)O)c3)ccc2c1
140 to 141	Cn1ccc2cc(C(=O)NN)ccc21
61 to 62	OC(COc1ccccc1)c1ccccc1 (configuration not stated)
95 to 98	CCCCCCCC1CC(C(=O)Nc2c(C(C)C)cccc2C(C)C)C(=O)O1 (configuration not stated)
278 to 280	CN=C1CSc2ccccc2CN1
237	CCOC(=O)c1nc2scc(NC(=O)Cc3ccccc3)c2c(=O)[nH]1
54 to 57	CSCC(=O)N(C)C(C)=Nc1cn(-c2cccnc2)nc1C
228	N=C(NC(=O)c1ccccc1)N1CCc2[nH]cnc2C1
129 to 131	Cc1c(-c2ccc(OC3CCCC3)cc2)n(Cc2ccc(OCCO)cc2)c2ccc(OCc3ccccc3)cc12
131 to 134	CCc1nc2c(cnn2CC)c(NC2CCOCC2)c1CNC(=O)c1cccc(C(=O)NCc2ccc(Cl)c(-c3cccc(C=O)c3)c2)c1
126	CCCc1ccc(-c2ncc(C#N)cn2)cc1
106 to 109	C#CCN1C(=O)C2CC2(c2ccc(N)cc2)C1=O (configuration not stated)
107 to 110	CNc1cc(OC)ccc1[N+](=O)[O-]
204	OC1CSC(Oc2cncc(-c3nccs3)c2)C(O)C1O (configuration not stated)
163 to 164	CC1Nc2ccc(-c3cc(F)cc(C#N)c3)cc2C(C)(C)O1 (configuration not stated)
219 to 225	Cc1ccc([N+](=O)[O-])c2[nH]ccc(=O)c12
204 to 205	CC(=O)Nc1cc(N2CCCCC2)nc(=N)n1O
92 to 96	Cc1ccc(C(Cn2ccnc2)C(=O)c2ccc(Cl)cc2Cl)cc1 (configuration not stated)
149 to 151	CC(C)CN1CCS(=O)(=O)c2sc(S(N)(=O)=O)cc2C1

melting point [°C]	Structure (SMILES)
142 to 144	CCN(Cc1ccccc1)C(=O)Cn1c2cccc(OCc3ccccc3)c2c2c(COC)c(C(=O)OC(C)C)ncc21
154 to 156	CC(=O)Oc1ccccc1C(=O)Nc1cc(Cl)c(OC(C)=O)c(Cl)c1
145 to 146	CNC(=O)C(C)(C)C(O)(Cn1cncn1)c1ccc(Cl)cc1Cl (configuration not stated)
203 to 205	CC(C)c1ccc(-c2nc3ccc(OC(F)(F)F)cc3[nH]2)cc1
153 to 155	NC(=O)c1cc(F)c(F)c(Cl)c1Cl
93 to 95	O=C1NCC(Cc2ccccc2O)O1 (configuration not stated)
235 to 238	O=C(Nc1cccc2c(O)cccc12)c1ccc(F)c([N+](=O)[O-])c1
239 to 241	O=[N+]([O-])c1ccccc1Cc1n[nH]c(S)n1
160 to 162	Cn1c(C(F)(F)F)cc(=O)n(-c2c(F)cc(Cl)c3c2OC(C)(C)C3=O)c1=O
192 to 193	COCc1cc(-c2cc3c(cc2F)c(=O)c(C(=O)O)cn3C2CC2)cc(C)n1
79 to 81	OCCN=Cc1ccc(Br)cc1
40 to 42	C[C@H](Nc1c(-c2c(F)cc(OCCCN(C)C)cc2F)c(Br)nc2ncnn12)C(F)(F)F
181 to 182	CCCc1c(OCCCCc2ccc3c(Cl)c(OC)c(OC)c(Cl)c3c2)ccc(C(=O)O)c1O
> 260	O=C1C(=O)c2c(nc3ccccn23)-c2cccc(Cl)c21
113 to 114	CC(=O)c1ccc(NS(C)(=O)=O)c(Oc2ccccc2)c1
246	COc1ccc(N2C(=O)C(Oc3ccccc3)C2c2ccc(C(=O)O)cc2)cc1 (configuration not stated)
81 to 82	COc1cccc(Oc2cccnc2C(=O)NCCNC(=O)OC(C)(C)C)c1
146	COc1ccc2cccc(C=CN3C(=O)c4ccccc4C3=O)c2c1
137 to 138	CC1=NC(c2ccc(F)cc2F)c2ccccc2CN1C (single isomer, unassigned; (+))
165 to 167	CSc1ccc([N+](=O)[O-])nc1
234 to 235	c1csc(CNc2nc(-n3ccnc3)nc3ccccc23)c1
115 to 117	CC(C)=Cc1sc(C#N)c2c1C(=O)CC(C)(C)C2
207 to 210	CCCCc1nc(Cl)c(CC(=O)O)n1Cc1ccc([N+](=O)[O-])cc1
143 to 144	COC(NC(C)=O)(C(=O)O)C(Br)Br (configuration not stated)
138 to 142	O=C(O)c1cn(C2CC2)c2c(Cl)c(N3CCC(CNCCF)C3)c(F)cc2c1=O (configuration not stated)

melting point [°C]	Structure (SMILES)
235 to 236	O=C1CCC(c2ccc(N=C3NCCN3)cc2)=NN1
118 to 119	CCCc1c(OCC(O)CS(=O)(=O)c2ccc(CC(=O)OC)c(F)c2)ccc(C(C)=O)c1O (configuration not stated)
> 250	C[C@H](c1ccccc1)n1c(O)nc2c(N)nc3ccccc3c21
87 to 90	Cc1nsc(OCC(F)(F)F)c1S(=O)(=O)NC(C)(C)C
71 to 73	CCOC(=O)CN(C(=O)C(F)(F)F)c1ccc(Cl)cc1C#N
147 to 151	O=C(NCC1(c2ccccc2)CCCCC1)Nc1cccc(C(F)(F)F)c1
98	CCC(=O)C1=C(O)CC(c2ccc3c(c2)CCC3)CC1=O (configuration not stated)
133 to 135	CC(=O)OCc1nc(C(C)C)c(Sc2cc(Cl)cc(Cl)c2)n1Cc1ccncc1
131	COc1ccccc1N1CCN(CC(O)COc2cccc(C(=O)C=CN(C)C)c2)CC1 (configuration not stated)
128 to 130	N#Cc1c2c(n(Cc3ccccc3)c1N)CCCC2
150 to 152	O=C(c1cccnc1)n1nc(-c2ccc(Br)cc2)cc1C(F)(F)F
124 to 126	CSCC[C@@H](NC(=O)OC(C)(C)C)C(=O)NCC(=O)O
212 to 214	CCCNC(=Nc1ccccc1N1CCOCC1)NCCC
217 to 219	CC(C)OC(=O)n1cc(F)c(N)nc1=O
99 to 102	COc1cc(OC)nc(Oc2cccc3c2C(=O)OC3OCC#N)n1 (configuration not stated)
189 to 190	Clc1ccc(-c2cc(C3CC3)n3ncc(I)c3n2)cc1
118 to 123	O=C1OCCN1CCC1=NCCN1
157 to 160	CCc1ccc(N2CCN(c3c(C)c4c(c(OC)c3C)OC(C)(C)C4)CC2)cc1
163 to 164	CCCCCC(=O)N1CCN2C[C@@H](c3ccccc3)c3ccccc3[C@@H]2C1 (relative stereo)
164 to 166	Oc1ccc(-c2nc(Cn3ccnn3)cs2)cc1
148 to 150	O=C(c1cc(Cc2ccccc2)cc(Cn2ccnc2)c1)c1cc(Cl)c2cccnc2c1O
145 to 146	CCn1cc(C(=O)O)c(=O)cc1-c1cccc(N)c1
129 to 130	CC(C)(O)CC1CN=C(c2cc3cc(Oc4ccc(S(C)(=O)=O)cn4)cc(OC4CCOCC4)c3[nH]2)S1 (configuration not stated)

Structure (SMILES)	melting point [°C]
Cc1cccc2c1N(CC(=O)c1ccccc1O)C(=O)C(NC(=O)Nc1cccc(-c3nnn[nH]3)c1)N=C2c1ccccc1F (configuration not stated)	221 to 225
Cc1c[nH]c2cccc(C3CCCNC3)c12 (configuration not stated)	150
CC1=NC(=NOC(=O)N(C)C)SC1(C)C	108 to 110
CCONC(=O)COc1cccc2c1c(C(=O)C(N)=O)c(CC)n2Cc1ccccc1	176 to 178
